Reference: publication PMC8374649, “IBI362 (LY3305677), a weekly-dose GLP-1 and glucagon receptor dual agonist, in Chinese adults with overweight or obesity: A randomised, placebo-controlled, multiple ascending dose phase 1b study” (EClinicalMedicine, 2021)
Read-outs that look alike come from different tables or passages of the source.

Columns and labels:
[1] = Pharmacokinetics, non-compartmental, plasma concentration after subcutaneous dosing; assay type: in vivo; settings: human; for Cmax / AUC(0-t): n = 8, geometric mean (CV%); for AUC(0-t): read-out: AUC0–168h
Protocol: (§1) Pharmacokinetic parameters were assessed on pre-defined visits in all participants who received IBI362. […] Standard non-compartmental pharmacokinetics methods were used to analyze IBI362 plasma concentration data using Pkanalix 2020R1 (Lixoft, Antony, France). The values for Cmax and Tmax were taken directly from the observed plasma concentration data. The terminal-phase disposition rate constant (λz) was estimated using a log-linear regression of the concentration data in the terminal disposition phase, and T1/2 was estimated as ln(2)/λz. Immunogenicity was assessed by measures of anti-drug antibody-positive responses.
Safety analyses were done in the safety population (defined as all participants who received at least one dose of the study treatment). Pharmacokinetic analyses were done in the pharmacokinetic population (defined as all participants who received at least one dose of IBI362 and had at least one valid plasma concentration assessment). Pharmacodynamic analyses were done in the pharmacodynamic population (defined as all participants who received at least one dose of the study treatment and had baseline and at least one valid assessment). Efficacy analyses were done in the efficacy population (defined as all participants who received at least one dose of the study treatment and had at least one post-baseline assessment).

[2] = tested on: Chinese adults with overweight or obesity; assay: Efficacy and pharmacodynamic endpoints, change from baseline to week 12; assay type: in vivo, human; settings: for Body weight Percent CFB / BMI CFB / Body weight CFB / Diastolic blood pressure CFB / Fasting insulin CFB / Fasting plasma glucose CFB / LDL cholesterol CFB / Systolic blood pressure CFB / Total cholesterol CFB / Triglycerides CFB / Waist circumference CFB / Serum uric acid CFB: MMRM; for HbA1c CFB: ANCOVA, LOCF; for Serum uric acid CFB: post-hoc, baseline to week 12, LS mean (95% CI)
From the text: The secondary pharmacodynamic endpoints included changes from baseline (pre-dose on day 0) to week 12 in fasting plasma glucose and fasting insulin levels. The secondary efficacy endpoints included changes from baseline to week 12 in body weight, waist circumference, waist-to-hip ratio, BMI, blood pressure, heart rate, lipids and HbA1c levels. Post-hoc comparison of changes from baseline to week 12 in serum uric acid levels was done between participants receiving IBI362 in each cohort and those receiving placebo. We used mixed effect model for repeated measures (MMRM) for post-baseline repeated measures to analyse continuous efficacy and pharmacodynamic endpoints. The MMRM included the corresponding baseline value, treatment, visit and treatment-by-visit as fixed effects and participant as a random effect. Mean change from baseline or mean percent change from baseline were analysed using a restricted maximum likelihood (REML)-based repeated measures approach in combination with the Newton Raphson Algorithm. The fix effect of visit was fitted as a repeated effect and an unstructured covariance matrix was used. In case of non-converge, matrix like Variance Components and Compound Symmetry will be tested in a subsequent order until model-convergence is achieved. The between-subject degree of freedom was used in estimating fixed effects. No missing data imputation was conducted. Least squares mean estimates of treatment effect at week 12 as well as treatment difference versus placebo alongside with two-sided 95% confidence intervals were provided for key efficacy and pharmacodynamic endpoints. Significance test for body weight was based on least squares means using a two-sided α of 0.05. HbA1c was measured only at baseline and week 12. Least squares mean estimates for HbA1c were computed from an Analysis of Covariance (ANCOVA) model with baseline HbA1c value and treatment as covariates. Last observation carried forward (LOCF) was used for imputing missing post-baseline measure. Least squares mean estimates of treatment effect at week 12 alongside with two-sided 95% confidence intervals were provided. Post-hoc analysis of serum uric acid was performed using MMRM model described above.

[3] = Immunogenicity, anti-drug antibody-positive responses; assay type: in vivo, human
Protocol: as §1

Gcgr knockout (KO) mice = settings: cited from earlier work
From the text: (§2) IBI362 is a long-acting synthetic peptide analogue of mammalian OXM, with a fatty-acyl moiety to extend the half-life. […] Furthermore, a first-in-human single ascending dose ...

Glp1r KO mice = settings: cited from earlier work
From the text: as §2

healthy subjects = settings: single ascending dose; cited from earlier work
From the text: as §2

human GLP-1 receptors = settings: in vitro; cited from earlier work
From the text: as §2

human glucagon receptors = settings: in vitro; cited from earlier work
From the text: as §2

mice = settings: cited from earlier work
From the text: as §2

mouse GLP-1 receptors = settings: in vitro; cited from earlier work
From the text: as §2

mouse glucagon receptors = settings: in vitro; cited from earlier work
From the text: as §2

[4] = 1 mg, after first sc dose, 1.0–2.0–3.0 mg regimen
[5] = 1.5 mg, after first sc dose, 1.5–3.0–4.5 mg regimen
[6] = 2 mg, after first sc dose, 2.0–4.0–6.0 mg regimen
[7] = 1.0–2.0–3.0 mg sc once weekly, baseline to week 12, n = 8, LS mean (95% CI)
[8] = 1.5–3.0–4.5 mg sc once weekly, baseline to week 12, n = 8, LS mean (95% CI)
[9] = 2.0–4.0–6.0 mg sc once weekly, baseline to week 12, n = 7, LS mean (95% CI)

## CC(C)C[C@H](NC(=O)[C@H](CC(C)C)NC(=O)[C@H](Cc1c[nH]c2ccccc12)NC(=O)[C@H](CCC(=O)O)NC(=O)[C@@H](NC(=O)[C@H](Cc1ccccc1)NC(=O)[C@H](CCC(=O)O)NC(=O)[C@H](CCCCNC(=O)COCCOCCNC(=O)COCCOCCNC(=O)CC[C@H](NC(=O)CCCCCCCCCCCCCCCCCCC(=O)O)C(=O)O)NC(=O)[C@H](C)NC(=O)[C@H](CCCCN)NC(=O)[C@H](CCCCN)NC(=O)[C@H](CCC(=O)O)NC(=O)[C@H](CC(=O)O)NC(=O)[C@H](CC(C)C)NC(=O)[C@H](Cc1ccc(O)cc1)NC(=O)[C@H](CCCCN)NC(=O)[C@H](CO)NC(=O)[C@H](Cc1ccc(O)cc1)NC(=O)[C@H](CC(=O)O)NC(=O)[C@H](CO)NC(=O)[C@@H](NC(=O)[C@H](Cc1ccccc1)NC(=O)[C@@H](NC(=O)CNC(=O)[C@H](CCC(N)=O)NC(=O)C(C)(C)NC(=O)[C@@H](N)Cc1c[nH]cn1)[C@@H](C)O)[C@@H](C)O)C(C)C)C(=O)N[C@@H](CCC(=O)O)C(=O)NCC(=O)NCC(=O)N1CCC[C@H]1C(=O)N[C@@H](CO)C(=O)N[C@@H](CO)C(=O)NCC(N)=O [IBI362]
[1]; [4]
  Cmax: 82.4 ng/mL
  AUC(0-t): 12500 ng·h/mL
[1]; 1 mg, after first sc dose, 1.0–2.0–3.0 mg regimen, n = 8, median (range), read-out: Tmax
  Tmax: 71.9 h
[1]; [5]
  Cmax: 99.6 ng/mL
  AUC(0-t): 15600 ng·h/mL
[1]; 1.5 mg, after first sc dose, 1.5–3.0–4.5 mg regimen, n = 8, median (range), read-out: Tmax
  Tmax: 84.5 h
[1]; [6]
  Cmax: 134 ng/mL
  AUC(0-t): 19200 ng·h/mL
[1]; 2 mg, after first sc dose, 2.0–4.0–6.0 mg regimen, n = 8, median (range), read-out: Tmax
  Tmax: 71.9 h
[1]; first sc doses, all cohorts, read-out: median Tmax
  Tmax: 72 h
[2]; 1.0–2.0–3.0 mg sc once weekly (3.0 mg cohort), baseline to week 12, n = 8, LS mean (95% CI)
  Body weight Percent CFB: −4.81%
[2]; [7]
  HbA1c CFB: −0.38%
  BMI CFB: −1.44 kg/m²
  Body weight CFB: -3.80 kg
  Diastolic blood pressure CFB: −8.48 mm Hg
  Fasting insulin CFB: −3.58 µU/mL
  Fasting plasma glucose CFB: -0.30 mmol/L
  LDL cholesterol CFB: -0.11 mmol/L
  Systolic blood pressure CFB: −8.26 mm Hg
  Total cholesterol CFB: -0.74 mmol/L
  Triglycerides CFB: -0.44 mmol/L
  Waist circumference CFB: −3.25 cm
[2]; 1.5–3.0–4.5 mg sc once weekly (4.5 mg cohort), baseline to week 12, n = 8, LS mean (95% CI)
  Body weight Percent CFB: −6.40%
[2]; [8]
  HbA1c CFB: −0.24%
  BMI CFB: −2.00 kg/m²
  Body weight CFB: -5.77 kg
  Diastolic blood pressure CFB: −5.76 mm Hg
  Fasting insulin CFB: −6.14 µU/mL
  Fasting plasma glucose CFB: -0.11 mmol/L
  LDL cholesterol CFB: -0.25 mmol/L
  Systolic blood pressure CFB: −5.80 mm Hg
  Total cholesterol CFB: -0.68 mmol/L
  Triglycerides CFB: -0.55 mmol/L
  Waist circumference CFB: −4.57 cm
[2]; 2.0–4.0–6.0 mg sc once weekly (6.0 mg cohort), baseline to week 12, n = 7, LS mean (95% CI)
  Body weight Percent CFB: −6.05%
[2]; [9]
  HbA1c CFB: −0.23%
  BMI CFB: −1.88 kg/m²
  Body weight CFB: -5.12 kg
  Diastolic blood pressure CFB: −2.73 mm Hg
  Fasting insulin CFB: −0.42 µU/mL
  Fasting plasma glucose CFB: -0.13 mmol/L
  LDL cholesterol CFB: -0.34 mmol/L
  Systolic blood pressure CFB: −5.59 mm Hg
  Total cholesterol CFB: -0.81 mmol/L
  Triglycerides CFB: -0.74 mmol/L
  Waist circumference CFB: −5.00 cm
[2]; all three dose cohorts (Fig. S6)
  Serum ALT and AST levels: decreased from baseline
[2]; 3.0 mg cohort (1.0-2.0-3.0 mg)
  Serum uric acid CFB: -43.67 µmol/L
[2]; 4.5 mg cohort (1.5-3.0-4.5 mg)
  Serum uric acid CFB: -83.47 µmol/L
[2]; 6.0 mg cohort (2.0-4.0-6.0 mg)
  Serum uric acid CFB: -87.48 µmol/L
[2]; week 12, all IBI362 cohorts, 10 participants, data not shown
  Participants with coincident decrease in body weight, LDL cholesterol, triglycerides, blood pressure and serum uric acid: 41.7%
[2]; week 12, all IBI362 cohorts, thirteen participants
  Participants achieving ≥5% weight loss from baseline: 54.2%
[3]; 3.0 mg cohort
  Participants who developed anti-IBI362 antibody: One
[3]; 4.5 mg cohort
  Participants who developed anti-IBI362 antibody: one
Gcgr knockout (KO) mice
  Body weight: decreased body weight
Glp1r KO mice
  Body weight: decreased body weight
Healthy subjects
  Safety, glycaemic improvement and weight loss: demonstrated the safety, glycaemic improvement and weight loss
Human GLP-1 receptors
  Binding to human GLP-1 receptors: potently bound
Human glucagon receptors
  Binding to human glucagon receptors: potently bound
mice
  Energy expenditure as compared with vehicle: increased energy expenditure
  Glucose control: improved glucose control
Mouse GLP-1 receptors
  Binding to mouse GLP-1 receptors: potently bound
Mouse glucagon receptors
  Binding to mouse glucagon receptors: potently bound
